Among the data in patent US10150747B2, “Compounds for the treatment of hepatitis C” (BRISTOL-MYERS SQUIBB COMPANY, priority 2015, dated 2018) are hepatic toxicity, IC50 and EC50 values, retold here.

The test system of series [1] is HCV. Conditions: extended dosing of the combination regimens with interferon and ribavirin; cited from earlier work.
Series [2] concerns the target HCV NS5B genotype 1b (Con1) (Hepatitis C virus genotype 1b (isolate Con1) (HCV), UniProt Q9WMX2). The series is described as follows: HCV NS5B RdRp enzyme assay (1b enzyme). The series is classed as biochemical. Conditions: genotype 1b NS5B enzyme. The method, then:
HCV NS5B RdRp Cloning, Expression, and Purification.
The cDNA encoding NS5B proteins of HCV genotype 1b (Con1), a genotype 1b variant with amino acid 316 mutated from cysteine to asparagine, and genotype 2a (JFH-1), were cloned into the pET21a expression vector. Each untagged protein was expressed with an 18 amino acid C-terminal truncation to enhance the solubility. The E. coli competent cell line BL21(DE3) was used for expression of the protein. Cultures were grown at 37° C. for ˜4 hours until the cultures reached an optical density of 2.0 at 600 nm. The cultures were cooled to 20° C. and induced with 1 mM IPTG. Fresh ampicillin was added to a final concentration of 50 μg/mL and the cells were grown overnight at 20° C.
The lysis buffer consisted of 20 mM Tris-HCl, pH 7.4, 500 mM NaCl, 0.5% triton X-100, 1 mM DTT, 1 mM EDTA, 20% glycerol, 0.5 mg/mL lysozyme, 10 mM MgCl2, 15 ug/mL deoxyribonuclease I, and Complete TM protease inhibitor tablets (Roche). After addition of the lysis buffer, frozen cell pellets were resuspended using a tissue homogenizer. To reduce the viscosity of the sample, aliquots of the lysate were sonicated on ice using a microtip attached to a Branson sonicator. The sonicated lysate was centrifuged at 100,000×g for 30 minutes at 4° C. and filtered through a 0.2 μm filter unit (Corning).
The protein was purified using two sequential chromatography steps: Heparin sepharose CL-6B and polyU sepharose 4B. The chromatography buffers were identical to the lysis buffer but contained no lysozyme, deoxyribonuclease I, MgCl2 or protease inhibitor and the NaCl concentration of the buffer was adjusted according to the requirements for charging the protein onto the column. Each column was eluted with a NaCl gradient which varied in length from 5-50 column volumes depending on the column type. […] The enzyme was aliquoted and stored at −80° C.
HCV NS5B RdRp Enzyme Assay.
An on-bead solid phase homogeneous assay was used in a 384-well format to assess NS5B inhibitors (WangY-K, Rigat K, Roberts S, and Gao M (2006) Anal Biochem, 359: 106-111). The biotinylated oligo dT12 primer was captured on streptavidin-coupled imaging beads (GE, RPNQ0261) by mixing primer and beads in 1× buffer and incubating at room temperature for three hours. Unbound primer was removed after centrifugation. The primer-bound beads were resuspended in 3× reaction mix (20 mM Hepes buffer, pH 7.5, dT primer coupled beads, poly A template, ^3H-UTP, and RNAse inhibitor (Promega N2515)). Compounds were serially diluted 1:3 in DMSO and aliquoted into assay plates. Equal volumes (5 μL) of water, 3× reaction mix, and enzyme in 3× assay buffer (60 mM Hepes buffer, pH 7.5, 7.5 mM MgCl2, 7.5 mM KCl, 3 mM DTT, 0.03 mg/mL BSA, 6% glycerol) were added to the diluted compound on the assay plate. Final concentration of components in 384-well assay: 0.36 nM template, 15 nM primer, 0.29 μM ^3H-UTP (0.3 μCi), 1.6 U/4 RNAse inhibitor, 7 nM NS5B enzyme, 0.01 mg/mL BSA, 1 mM DTT, and 0.33 μg/μL beads, 20 mM Hepes buffer, pH 7.5, 2.5 mM MgCl2, 2.5 mM KCl, and 0.1% DMSO.
Reactions were allowed to proceed for 24 hours at 30° C. and terminated by the addition of 50 mM EDTA (5 μL). After incubating for at least 15 minutes, plates were read on an Amersham LEADseeker multimodality imaging system.
IC50 values for compounds were determined using ten different [I]. IC50 values were calculated from the inhibition using the four-parameter logistic formula y=A+((B−A)/(1+((C/x)^D))), where A and B denote minimal and maximal % inhibition, respectively, C is the IC50, D is hill slope and x represents compound concentration.

For series [3], the system named is genotype 1b (Con-1) HCV replicon in Huh-7 cells. The series is described as follows: HCV replicon luciferase assay (1b replicon). It counts as cell-based. As to conditions: Hepatitis C virus, 72 h; genotype 1b replicon, Huh-7, Renilla luciferase, 3 days incubation; read-out: EC50. On the procedure:
The cell lines used to evaluate compounds consist of a human hepatocyte derived cell line (Huh-7) that constitutively expresses a genotype 1b (Con-1) HCV replicon or a genotype 1b (Con-1) HCV replicon with an asparagine replacing the cysteine at amino acid 316, or a genotype 2a (JFH-1) replicon, containing a Renilla luciferase reporter gene. These cells were maintained in Dulbecco's modified Eagle medium (DMEM) containing 10% FBS, 100 U/mL penicillin/streptomycin and 1.0 mg/mL G418.
HCV Replicon Luciferase Assay.
After 3 days incubation at 37° C., cells were analyzed for Renilla Luciferase activity using the EnduRen substrate (Promega cat #E6485) according to the manufacturer's directions. Briefly, the EnduRen substrate was diluted in DMEM and then added to the plates to a final concentration of 7.5 μM. The plates were incubated for at least 1 h at 37° C. then read on a Viewlux Imager (PerkinElmer) using a luminescence program.
A general note: In antiviral work, replicon cells carry a viral genome segment that copies itself.

Sequence of HCV NS5B genotype 1b (Con1) (Q9WMX2 2420-2992): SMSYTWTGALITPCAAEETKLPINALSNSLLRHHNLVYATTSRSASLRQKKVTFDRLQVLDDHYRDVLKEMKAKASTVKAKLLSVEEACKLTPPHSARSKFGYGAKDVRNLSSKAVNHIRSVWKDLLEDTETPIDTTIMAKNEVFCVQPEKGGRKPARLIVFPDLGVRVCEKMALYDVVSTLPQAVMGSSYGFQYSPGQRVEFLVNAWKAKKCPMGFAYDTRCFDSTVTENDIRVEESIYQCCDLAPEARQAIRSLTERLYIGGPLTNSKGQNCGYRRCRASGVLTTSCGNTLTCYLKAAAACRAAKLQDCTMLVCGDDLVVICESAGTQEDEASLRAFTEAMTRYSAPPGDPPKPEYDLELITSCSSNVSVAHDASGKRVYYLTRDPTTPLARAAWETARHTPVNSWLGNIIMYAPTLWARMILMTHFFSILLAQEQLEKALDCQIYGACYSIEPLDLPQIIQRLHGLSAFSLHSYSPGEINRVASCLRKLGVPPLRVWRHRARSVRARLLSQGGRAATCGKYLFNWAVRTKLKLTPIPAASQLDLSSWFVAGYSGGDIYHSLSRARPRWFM

In the case of `CNC(=O)c1c(-c2ccc(F)cc2)oc2cc(N(CCO)S(C)(=O)=O)c(C3CC3)cc12` [HCV-796], the hepatic toxicity entry in series [1] is “hepatic toxicity”.
Consider `CCOc1cc2oc(-c3ccc(F)cc3)c(C(=O)NC)c2cc1-c1cccc(C(=O)NC23CC(C2)C3)c1` [Example 5, 5-(3-(Bicyclo[1.1.1]pentan-1-ylcarbamoyl)phenyl)-6-ethoxy-2-(4-fluorophenyl)-N-methylbenzofuran-3-carboxamide], for which the IC50 in series [2] worked out at 4.3 nM. Further, the EC50 in series [3] turned out to be 6.5 nM.
As for `CNC(=O)c1c(-c2ccc(F)cc2)oc2cc(OCC(F)(F)F)c(-c3ccc(OC)c(C(=O)NC4(c5ncccn5)CC4)c3)cc12` [Example 2, 2-(4-Fluorophenyl)-5-(4-methoxy-3-((1-(pyrimidin-2-yl)cyclopropyl)carbamoyl)phenyl)-N-methyl-6-(2,2,2-trifluoroethoxy)benzofuran-3-carboxamide], inhibition in series [2] was half-maximal at 4.15 nM (IC50). In addition, the EC50 in series [3] was determined as 6.24 nM.
The like results for `CNC(=O)c1c(-c2ccc(F)cc2)oc2cc(OCC(C)C)c(-c3ccc(OC)c(C(=O)NC(C)(C)c4ncon4)c3)cc12` [Example 26, 5-(3-((2-(1,2,4-oxadiazol-3-yl)propan-2-yl)carbamoyl)-4-methoxyphenyl)-2-(4-fluorophenyl)-6-isobutoxy-N-methylbenzofuran-3-carboxamide] were, in that order, 30 nM and 80 nM.
The matching figures for `CNC(=O)c1c(-c2ccc(F)cc2)oc2cc(OC(C)C)c(-c3ccc(OC)c(C(=O)NC(C)(C)c4ncon4)c3)cc12` [Example 23, 5-(3-((2-(1,2,4-Oxadiazol-3-yl)propan-2-yl)carbamoyl)-4-methoxyphenyl)-2-(4-fluorophenyl)-6-isopropoxy-N-methylbenzofuran-3-carboxamide]: 7.14 nM and 10 nM.
The like results for `CNC(=O)c1c(-c2ccc(F)cc2)oc2cc(OCC(F)(F)F)c(-c3ccc(F)c(C(=O)NC4(c5ncccn5)CC4)c3)cc12` [Example 3, 5-(4-Fluoro-3-((1-(pyrimidin-2-yl)cyclopropyl)carbamoyl)phenyl)-2-(4-fluorophenyl)-N-methyl-6-(2,2,2-trifluoroethoxy)benzofuran-3-carboxamide] were, in that order, 4.38 nM and 6.7 nM.
Turning to `CNC(=O)c1c(-c2ccc(F)cc2)oc2cc(OCC(F)F)c(-c3cccc(C(=O)NC(C)(C)c4ncon4)c3)cc12` [Example 19, 5-(3-((2-(1,2,4-Oxadiazol-3-yl)propan-2-yl)carbamoyl)phenyl)-6-(2,2-difluoroethoxy)-2-(4-fluorophenyl)-N-m ethylbenzofuran-3-carboxamide], the IC50 in series [2] stood at 4.2 nM. Moreover, in series [3], the EC50 was 7.41 nM.
The matching figures for `[2H]C([2H])([2H])Oc1ccc(-c2cc3c(C(=O)NC)c(-c4ccc(F)cc4)oc3cc2OCC)cc1C(=O)NC(C)(C)c1ncsn1` [Example 33, 5-(3-((2-(1,2,4-thiadiazol-3-yl)propan-2-yl)carbamoyl)-4-(methoxy-d3)phenyl)-6-ethoxy-2-(4-fluorophenyl)-N-methylbenzofuran-3-carboxamide]: 2.04 nM and 2.49 nM.
The matching figures for `CCOc1cc2oc(-c3ccc(F)cc3)c(C(=O)NC)c2cc1-c1cnc(OC)c(C(=O)NC23CC(C2)C3)c1` [Example 15, N-(bicyclo[1.1.1]pentan-1-yl)-5-(6-ethoxy-2-(4-fluorophenyl)-3-(methylcarbamoyl)benzofuran-5-yl)-2-methoxynicotinamide]: 2.48 nM and 7.03 nM.
As for `CNC(=O)c1c(-c2ccc(F)cc2)oc2cc(OCC(F)(F)F)c(-c3cccc(C(=O)NC4(C#N)CC4)c3)cc12` [Example 8, 5-(3-((1-Cyanocyclopropyl)carbamoyl)phenyl)-2-(4-fluorophenyl)-N-methyl-6-(2,2,2-trifluoroethoxy)benzofuran-3-carboxamide], in series [2], the IC50 was determined as 4.97 nM. Further, the EC50 in series [3] is 20 nM.
The matching figures for `CNC(=O)c1c(-c2ccc(F)cc2)oc2cc(OCC(F)(F)F)c(-c3cnc(OC)c(C(=O)NC4(c5ncccn5)CC4)c3)cc12` [Example 29, 5-(2-(4-Fluorophenyl)-3-(methylcarbamoyl)-6-(2,2,2-trifluoroethoxy)benzofuran-5-yl)-2-methoxy-N-(1-(pyrimidin-2-yl)cyclopropyl)nicotinamide]: 2.95 nM and 4.57 nM.
The matching figures for `CCOc1cc2oc(-c3ccc(F)cc3)c(C(=O)NC)c2cc1-c1cnc(OC)c(C(=O)NC2(c3ncccn3)CC2)c1` [Example 13, 5-(6-Ethoxy-2-(4-fluorophenyl)-3-(methylcarbamoyl)benzofuran-5-yl)-2-methoxy-N-(1-(pyrimidin-2-yl)cyclopropyl)nicotinamide]: 2.72 nM and 3.67 nM.
The matching figures for `[2H]C([2H])([2H])Oc1ccc(-c2cc3c(C(=O)NC)c(-c4ccc(F)cc4)oc3cc2OCC)cc1C(=O)NC(C)(C)C#N` [Example 28, 5-(3-((2-cyanopropan-2-yl)carbamoyl)-4-(methoxy-d3)phenyl)-6-ethoxy-2-(4-fluorophenyl)-N-methylbenzofuran-3-carboxamide]: 2.04 nM and 2.01 nM.

As a reminder, the IC50 is the midpoint of a concentration-inhibition curve. A high value points to weaker potency in that assay. The EC50 is the concentration needed to bring the measured effect to its halfway point.
